Legend:
5′-nucleotidase = biological target: T1, 5′-nucleotidase (Mus musculus, UniProt Q61503); test: 5'-nucleotidase activity assay in intact primary hepatocytes (adenosine from AMP by HPLC); assay type: cell-based; conditions: 500 μM AOPCP, 100 μM AMP
T1 construct: endogenous in cells; host or cells: primary hepatocytes from C57BL/6J mice
T1 sequence (Q61503 29-551): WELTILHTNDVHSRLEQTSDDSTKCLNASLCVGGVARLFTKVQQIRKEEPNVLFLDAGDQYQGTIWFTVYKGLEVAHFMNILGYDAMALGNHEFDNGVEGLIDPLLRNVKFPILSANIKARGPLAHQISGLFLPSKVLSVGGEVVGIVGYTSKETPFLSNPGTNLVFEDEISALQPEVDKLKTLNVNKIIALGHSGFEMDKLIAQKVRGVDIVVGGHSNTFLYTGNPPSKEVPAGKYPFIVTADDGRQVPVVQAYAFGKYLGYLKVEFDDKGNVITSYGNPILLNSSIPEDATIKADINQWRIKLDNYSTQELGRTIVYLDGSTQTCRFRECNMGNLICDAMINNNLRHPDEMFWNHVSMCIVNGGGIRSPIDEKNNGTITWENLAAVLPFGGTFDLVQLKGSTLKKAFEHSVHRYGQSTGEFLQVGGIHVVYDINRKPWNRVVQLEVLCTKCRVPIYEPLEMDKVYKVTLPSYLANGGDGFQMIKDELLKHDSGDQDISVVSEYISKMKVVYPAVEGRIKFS
Method: The amounts of adenosine produced were determined by HPLC. […] Silencing efficiencies were evaluated by quantitative RT-PCR.
AOPCP inhibits 5′-nucleotidase activity by 97%.

[1] = test system: GLP-1 secretion from the ileum; test: GLP-1 secretion from ex vivo ileal explants (ELISA); assay type: cell-based, mouse; conditions: ileal explants of 24-month-old female B6 mice, 20 μM, 4 h, vs 0.2% DMSO
Method: GLP-1 measurement in plasma and in supernatants of ex vivo small intestine explant cultures. Blood was collected after 6 h refeeding (from 10 am to 4 pm) following 24 h fasting (from 9 am to 9 am) from tail veins of 2- or 24-month-old female Slc12a8 knockdown mice and their controls using EDTA-coated tubes. Blood was immediately chilled on ice, centrifuged at 5,000×g at 4° C., and plasma samples were stored at −80° C. Small intestines from gut-specific Slc12a8 knockdown female mice or 12-month-old Slc12a8KO female mice were cut into three segments of the duodenum, jejunum, and ileum with length ratios of 1:3:2 (Wang, H. H., et al., Hepatology, 2007, 45, 998-1006). […] GLP-1 levels in plasma and media were measured by GLP-1 Total ELISA Kit (EMD Millipore, MO) following the manufacturer's instruction. GLP-1 values were normalized by total protein content analyzed by Bradford assay.
The involvement of SIRT1 (Yoon, M. J., et al., Cell Metab., 2015 21, 706-717) and SIRT6 (Jiang, H. et al., Nature, 2013, 496, 110-113) in the observed increase in GLP-1 secretion was examined. […] GLP-1 levels were measured by ELISA in the supernatants from ex vivo ileal explants of 24-month-old female B6 mice cultured with 0.2% DMSO, 20 µM EX527 or 20 μM STK665401 for 4 h (n=3 mice, analyzed using ANOVA with Tukey's test).

Compound: Nc1ncnc2c1ncn2[C@@H]1O[C@H](COP(=O)(O)CP(=O)(O)O)[C@@H](O)[C@H]1O [AOPCP, adenosine-5′-[α,β-methylene]diphosphate]
- inhibition of 5′-nucleotidase activity (5′-nucleotidase): 97%

Compound: Cn1c(=O)c2cc(S(=O)(=O)Nc3ccc(Cc4ccncc4)cc3)ccc2n(C)c1=O [STK665401]
- GLP-1 secretion [1]: not

From patent publication US12337010B2, “Compositions and methods of treatment using nicotinamide mononucleotide” (Washington University, priority 2017, dated 2025)
